{"source": "patent US4606857A", "about": "“Muramyldipeptide derivatives” (priority 1982, dated 1986)", "system": "Meth-A tumor cells", "assay": "Antitumor activity against Meth-A system", "assay_type": "in vivo", "details": "BALB/c mice; Meth-A 1.5×10^6 cells mixed with 100 μg compound in PBS, intradermal; 27th day after inoculation", "procedure": "(3) Antitumor Activity Against Meth-A System\nA mixture of tumor cells (Meth-A, 1.5×10^6) and 100 μg of Compound 20 of the present invention suspended in PBS was inoculated intradermally in BALB/c mice. […] The value is expressed in terms of the number of tumor-free mice/the number of mice tested."}
{"compound": "CCCCCCCCCCCCCCCCCCCCCCCCCCCCCC(=O)S[C@@H]1O[C@H](CO)[C@@H](O)[C@H](O[C@H](C)C(=O)N[C@@H](C)C(=O)N[C@H](CCC(=O)OC)C(N)=O)[C@H]1NC(C)=O", "note": "[Compound 20, 2-Acetamido-2-deoxy-1-S-triacontanoyl-3-O-(D-2-propanoyl-L-alanyl-D-isoglutaminemethyl ester)-1-thio-β-D-glucopyranose]", "values": [{"measurement": "Suppression of Meth-A growth (number of tumor-free mice/number of mice tested)", "result": "5/9"}]}
